Columns and labels:
[1] = tested on: DLD-1 colorectal cancer cells; experiment: Decrease in mitochondrial membrane potential, JC-1 MitoScreen flow cytometry; format: cell-based, human; conditions: 24 hours
Method: (§1) DLD-1 human colorectal cancer cells (ATCC CCL-221, Manassas, VA, USA) were grown in DMEM (Dulbecco's Modified Eagle's Medium) supplemented with 10% fetal bovine serum (FBS), 2 mM glutamine, 50 U/ml penicillin, 50 μg/ml streptomycin at 37° C., in atmosphere containing 5% of CO2. Then the cells were counted in a hemocytometer and transferred in the amount of 1×10^6 cells per well in 1 ml of culture medium from Costar flasks (Sigma, USA) to Nunc 6-well plates (Wiesbaden, Germany). The cells were transferred using calcium-free phosphate buffer with the addition of 0.05% trypsin and 0.02% EDTA. […] Within the subsequent 24 hours the cells covered at least 80% of the surface of each plate well. The cells prepared in this manner were incubated with the examined compounds for 24 hours and then used for further experiments.
For the assessment of changes in mitochondrial potential JC-1 MitoScreen kit (BD Biosciences. USA) was used. DLD-1 and HT-29 cancer cells covering about 80% of the plate surface were incubated with the examined compounds according to the invention at specific concentrations in an incubator at 37° C. in 5% CO2 atmosphere for 24 hours. Both examined compounds according to the invention were used at a concentration of 1.5 μM and 3.0 μM. After the incubation period, the medium was removed, the buffer included in the kit was added and the cells after washing two times were suspended in a mixture of JC-1 dye (5,5′,6,6′-tetrachloro-1,1′,3,3′-tetraethylbenzimidazol carbocyanine iodide) with a buffer at a concentration of 10 μg/ml. Subsequently, the samples were incubated in darkness for 15 minutes, washed with PBS solution and subjected to immediate analysis with the use of BD FacsCanto II flow cytometer; the results were assessed with the use of BD FacsDiva software. In live intact cells JC-1 dye accumulates in mitochondria and forms orange fluorescing aggregates. A decrease in mitochondrial potential ΔΨm is characterized by disintegration of these aggregates and green fluorescence.

[2] = tested on: DLD-1 colorectal cancer cells; experiment: Induction of apoptosis, Annexin V-FITC / propidium iodide flow cytometry; format: cell-based, human; conditions: 24 hours
Method: as §1
Induction of apoptosis was examined by a method using fluorescein isothiocyanate-labelled Annexin V (Annexin V-FITC) which forms complexes with phosphatidylserine in the presence of calcium ions. The complexes were determined using FITC Annexin V Apoptosis Detection Kit II (BD Biosciences, USA) and a flow cytometer BD FACSCanto H (BD Biosciences Systems, San Jose, CA, USA). The analysis of results was carried out by means of FACSDiva software (BD Biosciences Systems, San Jose, CA USA).
DLD-1 and HT-29 cells were incubated for 24 hours in an incubator at 37° C. in a 5% CO2 atmosphere with medium containing the examined compounds according to the invention at specific concentrations. Both examined compounds were used at a concentration of 1.5 μM and 3.0 μM. After the incubation period, the medium was removed, a binding buffer included in the kit was added and the cells were suspended in the buffer. In order to calibrate the apparatus two control samples, i.e. a positive one and a negative one, were prepared. The positive control constituted a reference of control cells in which apoptosis was induced by the addition of 3% formaldehyde. Three control samples were prepared. The first sample contained control cells and propidium iodide, the second sample contained control cells and Annexin V-FITC and the third sample contained control cells, propidium iodide and Annexin V-FITC. After adding 2 μl of 3% formaldehyde the cells were placed in a refrigerator for 10 minutes. Cells that were not treated with any agent constituted the negative control. The cells from the control samples and the cells treated by the examined compounds according to the invention (1×10^6 cells/ml) suspended in the buffer included in the kit were subjected to further examination. 200 μl suspension were taken from each examined sample and were transferred to test tubes. 3 μl Annexin V-FITC and 5 μl propidium iodide (PI) were added to each sample in room temperature and the samples were placed in a dark place for 15 minutes. Cell suspension prepared in this manner was analyzed within one hour in the flow cytometer BD FACSCanto II (BD Biosciences Systems, San Jose, CA, USA) by means of FACSDiva software. The results of the above experiment can be described as follows: live cells (double negative sample—lack of reaction with Annexin V and P), early apoptosis (Annexin V positive and PI negative sample), late apoptosis (Annexin V positive and PI positive sample) and necrosis (Annexin V negative and PI positive sample)

[3] = DLD-1, 3.0 μM, listed as compound of Formula 3

Row | Compound | decrease of ΔΨm, % of the cell population ([1]; DLD-1, 1.5 μM) [%] | decrease of ΔΨm, % of the cell population ([1]; DLD-1, 3.0 μM) [%] | Early apoptosis ([2]; DLD-1, 1.5 μM) [%] | Late apoptosis ([2]; DLD-1, 1.5 μM) [%] | Live cells ([2]; DLD-1, 1.5 μM) [%] | Necrosis ([2]; DLD-1, 1.5 μM) [%] | early and late apoptotic cells (total) ([2]; DLD-1, 1.5 μM) [%] | Necrosis ([2]; DLD-1, 1.5 μM, listed as compound of Formula 2) [%] | Early apoptosis ([2]; DLD-1, 3.0 μM) [%] | Late apoptosis ([2]; DLD-1, 3.0 μM) [%] | Live cells ([2]; DLD-1, 3.0 μM) [%] | Necrosis ([2]; DLD-1, 3.0 μM) [%] | early and late apoptotic cells (total) ([2]; DLD-1, 3.0 μM) [%] | Necrosis ([2]; DLD-1, 3.0 μM, listed as compound of Formula 2) [%] | Necrosis ([2]; DLD-1, 1.5 μM, listed as compound of Formula 3) [%] | Early apoptosis [2, 3] [%] | Late apoptosis [2, 3] [%] | Necrosis [2, 3] [%]
1 | COC(=O)C1CCCN1S(=O)(=O)c1ccc(-n2nc(C)c3nc4nnnn4nc32)cc1 (centres unmarked) [Compound of Formula 2, Methyl 1-[4-(7-methyl-5H-pyrazol[4,3-e]tetrazolo[4,5-b][1,2,4]triazyn-5-yl)phenylsulfonyl]pyrrolidine-2-carboxylate] | 48.9 | 63.8 | 13.1 | 9.6 | 74.8 | 2.5 | 22.7 | 2.5 | 16.4 | 30.0 | 47.1 | 6.6 | 46.4 | 6.6 | – | – | – | –
2 | COC(=O)C1CC(O)CN1S(=O)(=O)c1ccc(-n2nc(C)c3nc4nnnn4nc32)cc1 (centres unmarked) [Compound of Formula 3, Methyl 4-hydroxy-1-[4-(7-methyl-5H-pyrazolo[4,3-e]tetrazolo[4,5-b][1,2,4]triazyn-5-yl)phenylsulfonyl]pyrrolidine-2-carboxylate] | 49.5 | 71.3 | 17.0 | 32.1 | 43.9 | 7.0 | 49.1 | – | 1.7 | 80.8 | 11.0 | 6.5 | – | – | 7.0 | 1.7 | 80.8 | 6.5

From patent publication US12319699B2, “L-proline sulfonamide derivatives comprising pyrazolo[4,3-e]tetrazolo[4,5-b][1,2,4]triazine system, method of manufacturing thereof, uses thereof and pharmaceutical composition comprising the same” (UNIWERSYTET MEDYCZNY W BIALYMSTOKU, priority 2018, dated 2025)
